Experimental data from patent US20140213446A1, “HERBICIDAL COMPOSITIONS AND METHODS USING COMBINATIONS OF 4-AMINO-3-CHLORO-6-(4-CHLORO-2-FLUORO-3-METHOXYPHENYL)PYRIDINE-2-CARBOXYLIC ACID OR A DERIVATIVE THEREOF AND AN ARYLOXYPHENOXY PROPIONATE ACCASE INHIBITOR HERBICIDE” (DOW AGROSCIENCES LLC, priority 2013, published 2014).
Several values for one entry are separate records, joined by “and”; a condition that tells them apart may be missing. Equal entries are not always repeated.

Legend:
Experiment in all cases: Postemergent herbicidal activity, greenhouse
Assay type in all cases: in vivo
[1] = system: ABUTH Abutilon theophrasti Medik. (velvetleaf)
Protocol: (§1) Evaluation of Postemergent Herbicidal Activity. Seeds or nutlets of the desired test plant species were planted in Sun Gro Metro-Mix® 360 planting mixture, which typically has a pH of 6.0 to 6.8 and an organic matter content of about 30 percent, in plastic pots with a surface area of 64 square centimeters (cm^2). When required to ensure good germination and healthy plants, a fungicide treatment and/or other chemical or physical treatment was applied. The plants were grown for 7-21 days (d) in a greenhouse with an approximate 15 hour (h) photoperiod which was maintained at about 23-29° C. during the day and 22-28° C. during the night. Nutrients and water were added on a regular basis and supplemental lighting was provided with overhead metal halide 1000-Watt lamps as necessary. The plants were employed for testing when they reached the first or second true leaf stage.
(§2) A weighed amount, determined by the highest rate to be tested, of each test compound was placed in a 25 milliliter (mL) glass vial and was dissolved in 4 mL of a 97:3 volume per volume (v/v) mixture of acetone and dimethyl sulfoxide (DMSO) to obtain concentrated stock solutions. […] The concentrated stock solutions obtained were diluted with 20 mL of an aqueous mixture containing acetone, water, isopropyl alcohol, DMSO, Atplus 411F crop oil concentrate, and Triton® X-155 surfactant in a 48.5:39:10:1.5:1.0:0.02 v/v ratio to obtain spray solutions containing the highest application rates. Additional application rates were obtained by serial dilution of 12 mL of the high rate solution into a solution containing 2 mL of a 97:3 v/v mixture of acetone and DMSO and 10 mL of an aqueous mixture containing acetone, water, isopropyl alcohol, DMSO, Atplus 411F crop oil concentrate, and Triton X-155 surfactant in a 48.5:39:10:1.5:1.0:0.02 v/v ratio to obtain ½X, ¼X, ⅛X and 1/16X rates of the high rate. Compound requirements are based upon a 12 mL application volume at a rate of 187 liters per hectare (L/ha). Formulated compounds were applied to the plant material with an overhead Mandel track sprayer equipped with 8002E nozzles calibrated to deliver 187 L/ha over an application area of 0.503 square meters (m^2) at a spray height of 18 inches ([…]) above the average plant canopy height. Control plants were sprayed in the same manner with the solvent blank.
(§3) Treatments consisted of the methyl ester of 4-amino-3-chloro-6-(4-chloro-2-fluoro-3-methoxyphenyl)pyridine-2-carboxylic acid (Cmpd 1) as technical grade material and fluazifop-P-butyl (Fusilade® DX), haloxyfop-P-methyl (GALLANT® super), and quizalofop-P-ethyl (Assure® II) alone and in combination. The form of compound of formula (I) and fluazifop-P-butyl, haloxyfop-P-methyl, and quizalofop-P-ethyl were applied on an acid equivalent basis.
(§4) The treated plants and control plants were placed in a greenhouse as described above and watered by subirrigation to prevent wash-off of the test compounds. After 14 d, the condition of the test plants as compared with that of the untreated plants was determined visually and scored on a scale of 0 to 100 percent where 0 corresponds to no injury and 100 corresponds to complete kill.
(§5) Results of testing mixtures in accordance with this disclosure and of the components of the mixtures separately against various common weeds in greenhouse trials are reported in the following tables. The reported values are of percent (%) control or percent (%) injury, visually rated. Colby's equation was used to determine the herbicidal effects expected from the mixtures (Colby, S. R. Calculation of the synergistic and antagonistic response of herbicide combinations. Weeds 1967, 15, 20-22.).
(§6) More specifically, the following equation was used to calculate the expected activity of mixtures containing two active ingredients, A and B:
(§7) A=observed efficacy of active ingredient A at the same concentration as used in the mixture; B=observed efficacy of active ingredient B at the same concentration as used in the mixture. […]

[2] = system: AMARE Amaranthus retroflexus L. (redroot pigweed)
Protocol: as §1, §2, §3, §4, §5, §6, §7

[3] = system: AVEFA Avena fatua L. (wild oat)
Protocol: as §1, §2, §3, §4, §5, §6, §7

[4] = system: BRSNW Brassica napus (winter oilseed rape)
Protocol: as §1, §2, §3, §4, §5, §6, §7

[5] = system: CHEAL Chenopodium album L. (common lambsquarters)
Protocol: as §1, §2, §3, §4, §5, §6, §7

[6] = system: CIRAR Cirsium arvense (L.) Scop. (Canada thistle)
Protocol: as §1, §2, §3, §4, §5, §6, §7

[7] = system: CYPES Cyperus esculentus L. (yellow nutsedge)
Protocol: as §1, §2, §3, §4, §5, §6, §7

[8] = system: DIGSA Digitaria sanguinalis (L.) Scop. (large crabgrass)
Protocol: as §1, §2, §3, §4, §5, §6, §7

[9] = system: EPHHL Euphorbia heterophylla L. (wild poinsettia)
Protocol: as §1, §2, §3, §4, §5, §6, §7

[10] = system: GLXMA Glycine max (soybean)
Protocol: as §1, §2, §3, §4, §5, §6, §7

[11] = system: HELAN Helianthus annuus L. (common sunflower)
Protocol: as §1, §2, §3, §4, §5, §6, §7

[12] = system: IPOHE Ipomoea hederacea (L.) Jacq. (ivyleaf momingglory)
Protocol: as §1, §2, §3, §4, §5, §6, §7

[13] = system: SETFA Setaria faberi Herrm. (giant foxtail)
Protocol: as §1, §2, §3, §4, §5, §6, §7

[14] = system: SORVU Sorghum vulgare (common sorghum)
Protocol: as §1, §2, §3, §4, §5, §6, §7

[15] = system: STEME Stellaria media (L.) Vill. (common chickweed)
Protocol: as §1, §2, §3, §4, §5, §6, §7

[16] = system: VIOTR Viola tricolor L. (wild violet)
Protocol: as §1, §2, §3, §4, §5, §6, §7

Measured: Visual Growth Reduction (%) 14 DAA Obs

COC(=O)c1nc(-c2ccc(Cl)c(OC)c2F)cc(N)c1Cl [Cmpd 1, methyl ester of 4-amino-3-chloro-6-(4-chloro-2-fluoro-3-methoxyphenyl)pyridine-2-carboxylic acid]
50% and 30%: [6]; Cmpd 1 2.5 g ae/ha
93%: [5]; Cmpd 1 5 g ae/ha | [7]; Cmpd 1 5 g ae/ha
60%: [2]; Cmpd 1 2.5 g ae/ha
50%: [2]; Cmpd 1 1.25 g ae/ha | [7]; Cmpd 1 1.25 g ae/ha
0%: [3]; Cmpd 1 1.25 g ae/ha | [3]; Cmpd 1 2.5 g ae/ha | [3]; Cmpd 1 5 g ae/ha | [4]; Cmpd 1 1.25 g ae/ha | [8]; Cmpd 1 1.25 g ae/ha | [8]; Cmpd 1 2.5 g ae/ha | [8]; Cmpd 1 5 g ae/ha | [13]; Cmpd 1 1.25 g ae/ha | [13]; Cmpd 1 2.5 g ae/ha | [14]; Cmpd 1 1.25 g ae/ha | [14]; Cmpd 1 2.5 g ae/ha | [14]; Cmpd 1 5 g ae/ha
90%: [1]; Cmpd 1 5 g ae/ha | [2]; Cmpd 1 5 g ae/ha | [7]; Cmpd 1 2.5 g ae/ha
40%: [11]; Cmpd 1 5 g ae/ha | [15]; Cmpd 1 5 g ae/ha
85%: [1]; Cmpd 1 2.5 g ae/ha
5%: [4]; Cmpd 1 2.5 g ae/ha
80%: [1]; Cmpd 1 1.25 g ae/ha | [5]; Cmpd 1 2.5 g ae/ha
70%: [5]; Cmpd 1 1.25 g ae/ha | [10]; Cmpd 1 1.25 g ae/ha
20%: [4]; Cmpd 1 5 g ae/ha | [11]; Cmpd 1 1.25 g ae/ha | [11]; Cmpd 1 2.5 g ae/ha | [12]; Cmpd 1 2.5 g ae/ha | [12]; Cmpd 1 5 g ae/ha | [15]; Cmpd 1 2.5 g ae/ha
30%: [6]; Cmpd 1 1.25 g ae/ha | [6]; Cmpd 1 5 g ae/ha | [13]; Cmpd 1 5 g ae/ha | [15]; Cmpd 1 1.25 g ae/ha | [16]; Cmpd 1 5 g ae/ha
97%: [10]; Cmpd 1 5 g ae/ha
10%: [12]; Cmpd 1 1.25 g ae/ha | [16]; Cmpd 1 1.25 g ae/ha | [16]; Cmpd 1 2.5 g ae/ha
95%: [9]; Cmpd 1 1.25 g ae/ha | [9]; Cmpd 1 2.5 g ae/ha | [9]; Cmpd 1 5 g ae/ha | [10]; Cmpd 1 2.5 g ae/ha

CCCCOC(=O)[C@@H](C)Oc1ccc(Oc2ccc(C(F)(F)F)cn2)cc1 [Fluazifop-P, fluazifop-P-butyl]
85%: [8]; Fluazifop-P 210 g ae/ha
70%: [3]; Fluazifop-P 210 g ae/ha | [8]; Fluazifop-P 52.5 g ae/ha | [14]; Fluazifop-P 52.5 g ae/ha
80%: [8]; Fluazifop-P 105 g ae/ha | [13]; Fluazifop-P 52.5 g ae/ha | [13]; Fluazifop-P 105 g ae/ha
100%: [14]; Fluazifop-P 210 g ae/ha
0%: [1]; Fluazifop-P 52.5 g ae/ha | [1]; Fluazifop-P 105 g ae/ha | [1]; Fluazifop-P 210 g ae/ha | [2]; Fluazifop-P 52.5 g ae/ha | [2]; Fluazifop-P 105 g ae/ha | [2]; Fluazifop-P 210 g ae/ha | [3]; Fluazifop-P 52.5 g ae/ha | [3]; Fluazifop-P 105 g ae/ha | [4]; Fluazifop-P 52.5 g ae/ha | [4]; Fluazifop-P 105 g ae/ha | [4]; Fluazifop-P 210 g ae/ha | [5]; Fluazifop-P 52.5 g ae/ha | [5]; Fluazifop-P 105 g ae/ha | [5]; Fluazifop-P 210 g ae/ha | [6]; Fluazifop-P 52.5 g ae/ha | [6]; Fluazifop-P 105 g ae/ha | [6]; Fluazifop-P 210 g ae/ha | [7]; Fluazifop-P 52.5 g ae/ha | [7]; Fluazifop-P 105 g ae/ha | [7]; Fluazifop-P 210 g ae/ha | [9]; Fluazifop-P 52.5 g ae/ha | [9]; Fluazifop-P 105 g ae/ha | [9]; Fluazifop-P 210 g ae/ha | [10]; Fluazifop-P 52.5 g ae/ha | [10]; Fluazifop-P 105 g ae/ha | [10]; Fluazifop-P 210 g ae/ha | [11]; Fluazifop-P 52.5 g ae/ha | [11]; Fluazifop-P 105 g ae/ha | [11]; Fluazifop-P 210 g ae/ha | [12]; Fluazifop-P 52.5 g ae/ha | [12]; Fluazifop-P 105 g ae/ha | [12]; Fluazifop-P 210 g ae/ha | [15]; Fluazifop-P 52.5 g ae/ha | [15]; Fluazifop-P 105 g ae/ha | [15]; Fluazifop-P 210 g ae/ha | [16]; Fluazifop-P 52.5 g ae/ha | [16]; Fluazifop-P 105 g ae/ha | [16]; Fluazifop-P 210 g ae/ha
90%: [13]; Fluazifop-P 210 g ae/ha | [14]; Fluazifop-P 105 g ae/ha

COC(=O)[C@@H](C)Oc1ccc(Oc2ncc(C(F)(F)F)cc2Cl)cc1 [Haloxyfop-P, haloxyfop-P-methyl]
0%: [2]; Haloxyfop-P 35 g ae/ha | [2]; Haloxyfop-P 70 g ae/ha | [2]; Haloxyfop-P 140 g ae/ha | [4]; Haloxyfop-P 35 g ae/ha | [4]; Haloxyfop-P 70 g ae/ha | [4]; Haloxyfop-P 140 g ae/ha | [5]; Haloxyfop-P 35 g ae/ha | [5]; Haloxyfop-P 70 g ae/ha | [5]; Haloxyfop-P 140 g ae/ha | [7]; Haloxyfop-P 35 g ae/ha | [7]; Haloxyfop-P 70 g ae/ha | [7]; Haloxyfop-P 140 g ae/ha | [12]; Haloxyfop-P 35 g ae/ha | [12]; Haloxyfop-P 70 g ae/ha | [12]; Haloxyfop-P 140 g ae/ha | [15]; Haloxyfop-P 35 g ae/ha | [15]; Haloxyfop-P 70 g ae/ha | [15]; Haloxyfop-P 140 g ae/ha | [16]; Haloxyfop-P 35 g ae/ha | [16]; Haloxyfop-P 70 g ae/ha | [16]; Haloxyfop-P 140 g ae/ha
